Laboratory results taken from EP0326134A1, “4-Amino-2,3-disubstituted-6,7-dihydro-5H-1-pyridine derivatives, process for their preparation and medicaments containing them” (NAUCHNO-ISSLEDOVATELSKY INSTITUT TEKHNOLOGII I BEZOPASNOSTI …, priority 1988, dated 1989).

Experiments:
[1] = Acute toxicity, single intraperitoneal injection, probit analysis (LD50); type: in vivo, Mäusen; details: mice, i.p.
Source text: Ihre akute Toxizität wurde an Mäusen (einmalige intraperitoneale Injektion) nach der Methode der Probit-Analyse nach Zichtfield, Wilcoxon, t949 untersucht. In Tabelle 2 sind die Parameter der akuten Toxizität (LDso) angegeben, die eine mäßige Toxizität der erfindungsgemäßen Verbindungen belegen.

[2] = Side effects and CNS/behaviour: tremor (TD50), sedative and m-cholinomimetic effects; type: in vivo; details: for Verhältnis TD50 zu ED50: ED50 = dose blocking the effect of Skopolamin in 50 % of the animals (passive avoidance, mice); for TD50 (Tremor): toxic dose causing tremor in 50 % of the animals
Source text: Von Interesse ist der Einfluß der erfindungsgemäßen Verbindungen auf das ZNS und das Verhalten der Tiere.

[3] = system: durch Skopolamin hervorgerufene Amnesie; assay: Dark avoidance assay (passive avoidance), scopolamine-induced amnesia; type: in vivo, Mäusen; details: mice, compound s.c. 5 min before learning, Skopolamin i.p. 30 min before
Protocol: Die Mäuse wurden dabei in den hellen Abschnitt der Kammer gegeben, wonach die Latenzzeit für den Übertritt in die dunkle Kammer, in der die Tiere einem Stromschlag von 0,5 mA ausgesetzt waren, registriert wurde. Danach erhöhte sich die Latenzzeit für den Übertritt in den dunklen Abschnitt und verringerte sich die Aufenthaltsdauer. 30 Minuten vor dem Versuch wurden den Mäusen i.p. […] Gedächtnisstörungen hervorrufendes Skopolamin als Cholinblocker injiziert. Die erfindungsgemäßen Verbindungen wurden s.c. 5 Minuten vor dem Lernvorgang injiziert. Das Skopolamin verkürzt die Latenzzeit für den Übertritt in die dunkle Kammer, die erfindungsgemäßen Verbindungen stellen jedoch die Latenzzeitwerte wie bei der Kontrollgruppe wieder her oder bedingen ein geringfügiges Überschreiten dieser Werte (siehe Tabelle 2). Gleichzeitig wird die Aufenthaltsdauer der Tiere im dunklen Abschnitt der Kammer auf 36 bis 45 Hundertstel des Ausgangswerts verringert.

[4] = system: Nerven-Muskel-Präparat von Mäusen (n.peroneus-m.extensor digitorum longus); assay: Neuromuscular transmission in isolated nerve-muscle preparation (EPP, minEPP); details: for Stimulierung der Nerven-Muskelübertragung, in % der Amplitude: EPP: EPP = Endplattenpotential
Source text: Der Einfluß der Stoffe auf die Nerven-Muskei-Übertragung wurde am isolierten Nerven-Muskel-Präparat von Mäusen (n.peroneus-m.extensor digitorum longus) (s. Bhattacharyya B. et al. "Neuromuscular blocking action of two hemicholinium-3 analogs" Europ. J. Pharmac. 146, 155-165 /1988/) untersucht, das von Lilly-Lösung perfundiert wurde, durch die man ein Gemisch von 02 und C02 leitete. […] Das Endplattenpotential (EPP) und das Endplattenminiaturpotential (minEPP) wurden mit Hilfe eines Magnetografen aufgezeichnet und danach mit dem Computer ausgewertet. Ermittelt wurden die Frequenz (f), die Amplitude (A) und die Dauer (t) der minEPP und der EPP (s. Tabelle 2).

[5] = system: isolierten Präparaten des rechten Vorhofs von Kaninchen; assay: Antiarrhythmic effect on isolated right atrium preparations (microelectrodes: AP duration, refractory period R, e/R); details: isolated right atrium of rabbit, microelectrodes
Source text: (§1) Die antiarrhythmische Wirkung der erfindungsgemäßen Verbindungen wurde in zwei Versuchsserien untersucht, und zwar an isolierten Präparaten des rechten Vorhofs von Kaninchen und mit Hilfe des Calciumchlorid-Arrhythmie-Modells an Ratten. In den Versuchen an den isolierten Präparaten des rechten Vorhofs wurden mit Hilfe von Mikroelektroden die Dauer des AP sowie der Refraktärzeit (R) und die maximale Hemmung (e) und der Parameter (e/R) untersucht, durch den die Anfälligkeit des Myokards gegenüber der Entstehung von Arrhythmien gekennzeichnet wird. In den Versuchen an Ratten wurden diesen Calciumchlorid in einer Dosierung von 250 mg/kg injiziert. Registriert wurden das Vorliegen von Kammerflimmern und die Lebensdauer der Tiere. Sämtliche erfindungsgemäßen Verbindungen üben eine mäßige antiarrhythmische Wirkung aus. Sie steigern die Refraktärzeit des Muskels und des AP um 35 bis 145 % und verringern gleichzeitig die Anfälligkeit des Myokards, ausgedrückt durch den Parameter e/R um 10 bis 80 % (s. Tabelle 4). In bezug auf diese Wirkung waren die Salze der bicyclischen Basen wirksamer als Amyridin. Bezüglich des Vermögens, die Tiere vor Kammerflimmern und vor dem Tod nach Verabreichung von 250 mg/kg Calciumchlorid zu schützen, waren diese Verbindungen ebenfalls am stärksten wirksam. Bei Verwendung des Calciumchlorid-Arrhythmie-Modells waren viele erfindungsgemäßen Verbindungen stärker wirksam als das klassische Antiarrhythmikum Chinidin (s. M.D. Ma s kovskij, Lekarstvennye sredstva, Bd. 1, S. 401, Moskau, Medicina, 1984).

[6] = system: Calciumchlorid-Arrhythmie-Modells; assay: Calcium chloride arrhythmia model (250 mg/kg): ventricular fibrillation, survival; type: in vivo, Ratten; details: rats, calcium chloride 250 mg/kg
Source text: as §1

Zahl der Krämpfe = assay: Writhing test (intraperitoneal acetic acid); type: in vivo, Mäusen; details: male mice
Source text: Die analgetische Wirkung der erfindungsgemäßen Verbindungen wurde an männlichen Mäusen anhand des "Krampf"-Tests (Writhing-Tests) unter intraperitonealer Injizierung von Essigsäure und des Hot-plate-Tests untersucht. Im ersten Falle wurde die analgetische Wirkung der Verbindungen anhand der prozentualen Verringerung der Zahl der Krämpfe ermittelt. Beim zweiten Test wurde die Schwelle der Schmerzempfindlichkeit (Ablecken der Pfoten) bestimmt. Die stärkste analgetische Wirkung der erfindungsgemäßen Verbindungen zeigte sich beim "Krampf"-Test. Dabei übertrafen die Salze der bicyclischen Basen Amyridin, aber nicht alle erfindungsgemäßen Verbindungen waren schwächer als Morphin (s. Tabelle 4).

Orientierungsaktivität = assay: Influence on orientation activity; type: in vivo, Mäusen; details: mice
Source text: Von Interesse ist der Einfluß der erfindungsgemäßen Verbindungen auf das ZNS und das Verhalten der Tiere. Alle Verbindungen zeigen eine Kombination von stimulierenden und sedativen Eigenschaften und bei höheren Dosen auch eine m-cholinomimetische Wirkung, wobei Tremor, Speichelfluß und Diarrhoe ausgelöst werden.

Wirkung von Hexenal = assay: Influence on the effect of Hexenal; type: in vivo, Mäusen; details: mice
[7] = biological target: T1, Acetylcholinesterase menschlicher Erythrozyten (Homo sapiens, UniProt P22303); assay: Acetylcholinesterase inhibition, spectrophotometric; type: biochemical; details: Acetylcholinesteraseinhibierung bei menschlichen Erythrozyten IK, (Mol), human erythrocyte enzyme
T1 construct: Acetylcholin-esteraseinhi-bierung bei menschlichen Erythrozyten; from tissue; host or cells: human erythrocytes
Source text: Untersucht wurden die Wirkmechanismen der erfindungsgemäßen Verbindungen: • 1. Die Wirkung auf Acetylcholinesterase menschlicher Erythrozyten auf spektrofotometrischem Wege. • 2.

Uterus der Ratte = assay: Contractile activity of smooth muscle: rat uterus; details: Rattus norvegicus, read-out: Serotonin 1.10^-6 (Mol): Amplitude, % bezogen auf die Kontrolle, Uterus der Ratte; Konzentration 1.10^-4 Mol; n = 9
Source text: (§2) In Versuchen an glattmpskulären Organen (Uterus, Samenleiter der Ratte und Krummdarm des Meerschweinchens) wurden die Wirkung der erfindungsgemäßen Verbindungen auf die kontraktile Aktivität der glatten Muskeln und ihre Reaktionen auf den Einfluß von Acetylcholin, Serotonin, Adrenalin und KCI als Agonisten untersucht. Mit Hilfe eines Schreibers wurden die Amplitude und die Dauer der Kontraktion der glatten Muskeln unter Verwendung eines Geräts vom Typ Mechanstron-untersucht.

Samenleiter der Ratte = assay: Contractile activity of smooth muscle: rat vas deferens; details: Rattus norvegicus, read-out: Adrenalin 1.10^-6: Amplitude, % bezogen auf d.Kontrolle, Samenleiter der Ratte; Konzentration 1.10^-4 Mol; n = 9
Source text: as §2

[8] = system: K -Durchlässigkeit der Membrane des Ranvier-Schnürringes; assay: K+ permeability of the node of Ranvier membrane, voltage clamp; set-up: species or system Frosches; details: node of Ranvier, frog sciatic nerve fibres, voltage clamp; concentration giving 50 % block of ion permeability; read-out: Blockierung der K^+-Durchlässigkeit der Membrane Ic50 (Mol)
Source text: (§3) Untersucht wurden die Wirkmechanismen der erfindungsgemäßen Verbindungen: • 1. Die Wirkung auf Acetylcholinesterase menschlicher Erythrozyten auf spektrofotometrischem Wege. • 2. Die Wirkung auf die K - und Na -Durchlässigkeit der Membrane des Ranvier-Schnürringes (s. Fox T.M. et al. "Modification of ionic membrane currrents of Ranvier nodes by UV-radiation under voltage clamp conditions", Experientia, 27, 1289-1290 /1971/ und Arhom P. et al. "Local anesthetics: effects on permeability properties of nodal membrane in myelynated nerve fibres from xenopus". Acta physiol. Scand. 91, 11-21 /1974/) der Nervenfasern des Hüftnervs des Frosches unter Anwendung der Methode der Messung der Membranspannung (Voltage-clampmethode) (s. Derksen H.E. "Axon membrane voltage fluctuations", Acta Physiol., Pharmacol Neer, 13, 373-466 /1965/).
(§4) Alle erfindungsgemäßen Verbindungen sind Blocker für die K^+-Durchlässigkeit der Membrane analog dem Amyridin. Die Salze der bicyclischen Basen blockieren jedoch stärker die Na -Durchlässigkeit der Membrane, was sich mit ihren sedativen und analgetischen Eigenschaften in Verbindung bringen läßt.

[9] = system: Na -Durchlässigkeit der Membrane des Ranvier-Schnürringes; assay: Na+ permeability of the node of Ranvier membrane, voltage clamp; set-up: species or system Frosches; details: node of Ranvier, frog sciatic nerve fibres, voltage clamp; concentration giving 50 % block of ion permeability; read-out: Blockierung der Na^+-Durchlässigkeit der Membrane Ic50 (Mol)
Source text: as §3, §4

T1 sequence (P22303 other isoform, or with tags, fused parts or gaps): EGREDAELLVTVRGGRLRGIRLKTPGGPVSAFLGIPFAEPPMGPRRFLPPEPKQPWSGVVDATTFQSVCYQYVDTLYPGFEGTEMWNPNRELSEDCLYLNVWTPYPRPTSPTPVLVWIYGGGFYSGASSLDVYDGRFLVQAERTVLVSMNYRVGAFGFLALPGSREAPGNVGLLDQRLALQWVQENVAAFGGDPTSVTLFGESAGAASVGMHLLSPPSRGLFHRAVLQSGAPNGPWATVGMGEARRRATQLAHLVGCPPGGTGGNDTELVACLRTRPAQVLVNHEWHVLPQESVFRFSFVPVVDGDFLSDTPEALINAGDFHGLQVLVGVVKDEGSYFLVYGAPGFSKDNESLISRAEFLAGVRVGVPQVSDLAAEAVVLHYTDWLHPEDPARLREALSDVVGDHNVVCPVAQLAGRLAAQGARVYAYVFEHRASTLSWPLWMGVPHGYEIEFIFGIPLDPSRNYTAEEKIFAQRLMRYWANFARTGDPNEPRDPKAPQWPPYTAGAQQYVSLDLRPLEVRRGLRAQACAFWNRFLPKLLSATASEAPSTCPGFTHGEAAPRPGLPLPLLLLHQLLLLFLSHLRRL

Structure (SMILES) | LD50 [1] | Verhältnis TD50 zu ED50 [2] | TD50 (Tremor) [2] | Einfluß auf das Gedächtnis: Zahl der Tiere in %, bei denen die Skopolaminwirkung aufgehoben wurde [3] | Stimulierung der Nerven-Muskelübertragung, in % der Amplitude: EPP [4] | Stimulierung der Nerven-Muskelübertragung, in % der Amplitude: minEPP [4] | Antiarrhythmische Wirkung: Verlängerung d. Refraktärzeit (R), in % [5] | Antiarrhythmische Wirkung: Verlängerung d. Lebensdauer von Ratten an Hand des CaCl2-Arrhythmie-Modells, in % [6] | Analgetische Wirkung: Abnahme d. Zahl der "Krämpfe" bei Mäusen, in % (Zahl der Krämpfe) | Änderung der Orientierungsaktivität, in % (Orientierungsaktivität) | Änderung der Dauer der Seitenlage, in %: Hexenal 60 mg/kg (Wirkung von Hexenal) | Ki [7] | activity at 100 µM (Uterus der Ratte) | activity at 100 µM (Samenleiter der Ratte) | IC50 [8] | IC50 [9]
Cc1nc2c(c(N)c1C)CCC2 [Verbindung 9] | 15 mg/kg | 7 | 7 mg/kg | 70% | 40% | 80% | 110% | 140% | 70% | -20% | +30% | 251 nM |  |  |  | 
Cc1nc2c(c(N)c1C)CCC2 [Verbindung 10] | 15 mg/kg | 7,5 | 6 mg/kg | 80% | 38% | 79% | 120% | 180% | 60% | 0% | 0% | 123 nM | 160% | 160% |  | 
Cc1nc2c(c(N)c1C)CCC2 [Verbindung 12, 4-Amino-2,3-dimethyl-6,7-dihydro-5H-1-pyrindinfumarat] | 15 mg/kg | 8 | 7 mg/kg | 50% | 32% | 70% | 110% | 130% | 90% | -15% | +30% | 520 nM |  |  |  | 
Cc1nc2c(c(N)c1C)CCC2 [Verbindung 13] | 18 mg/kg | 8,5 | 8 mg/kg | 65% | 35% | 72% | 120% | 100% | 60% | -10% | +25% | 450 nM |  |  |  | 
Cc1nc2c(c(N)c1C)CCC2 [Verbindung 14] | 17 mg/kg | 8,2 | 9 mg/kg | 70% | 30% | 62% | 100% | 90% | 50% | -7% | +15% | 350 nM |  |  |  | 
Cc1nc2c(c(N)c1C)CCC2 [Verbindung 15] | 16 mg/kg | 6,8 | 7 mg/kg | 72% | 40% | 75% | 90% | 110% | 65% | -15% | +30% | 650 nM |  |  |  | 
Cc1nc2c(c(N)c1C)CCC2 [Verbindung 16] | 21 mg/kg | 6,6 | 10 mg/kg | 75% | 42% | 78% | 80% | 70% | 50% | -10% | +22% | 580 nM |  |  |  | 
CCc1nc2c(c(N)c1C)CCC2 [Verbindung 28] | 40 mg/kg | 11 | 20 mg/kg | 80% | 22% | 48% |  |  |  |  |  | 6100 nM |  |  | 120000 nM | 150000 nM
